Data from a melting point compilation (Tetko et al.; mined from patent text by program, amines drawn as free bases though some values may be those of a salt).

`N#CC1CN1C(=O)NC(=O)c1ccco1` (stereo not given) gave a melting point of 148 to 150 °C.
Work on `NC(=S)C(F)(F)c1ccccc1` yielded a melting point of 99 to 100 °C.
With `COc1ccc(Cl)cc1C1(O)C(=O)Nc2ccc(C(F)(F)F)cc21` (stereo not given) the melting point was 218 to 220 °C.
Compound `COC(=O)C=Cc1ccc(C(=O)NC[C@H](NC(=O)OCc2ccccc2)C(=O)OC(C)(C)C)s1` has a melting point of 98 °C.
Compound `CON(CCCCn1c(C)nc2c(N)nc3ccccc3c21)S(C)(=O)=O` has a melting point of 201 to 203 °C.
Work on `COC(=O)c1ccc(=O)n(N)c1` yielded a melting point of 136 to 137 °C.
Compound `CC(=NC(C#N)=C(N)C#N)c1cccs1` has a melting point of 177 to 179 °C.
With `COc1ccc(C(=O)Nc2ccccc2)cc1NS(=O)(=O)c1ccc(NC(C)=O)cc1` the melting point was 250 to 251 °C.
Compound `O=C(NCC/C=C/CCCNC(=O)c1ccc(OC(F)F)cc1)c1ccc(OC(F)F)cc1` has a melting point of 122 to 123 °C.
For `COC(=O)c1c(C)cc2cc(OC)c(OC)cc2c1-c1ccnc(Cl)c1`, the melting point was 133 to 136 °C.
`Cc1noc(NS(=O)(=O)c2c(C(=O)c3ccc4c(c3)OCO4)sc3ncccc23)c1Cl` gave a melting point of 75 to 90 °C.
Work on `c1ccc(COc2ccc(N3CCN(Cc4nc5ccccc5[nH]4)CC3)nc2)cc1` yielded a melting point of 62 to 64 °C.
`CCCCCCCCCCCCCCCCCCOc1cc(OCc2ccc3ccccc3n2)cc(N(CC(=O)OC)CC(=O)OC)c1` gave a melting point of 76 to 79 °C.
For `COC(=O)c1ccc2cccc(C#N)c2c1`, the melting point was 178 to 182 °C.
Compound `COCc1ccc2c(c1)ncn2-c1cccc(-c2ccccc2)c1` has a melting point of 70 to 72 °C.
Compound `N#Cc1ncc(Cl)cc1OC1SCC(O)C(O)C1O` (stereo not given) has a melting point of 122 °C.
Compound `CCOC(=O)Nc1ccc(N2CCC(=O)CC2)cc1` has a melting point of 145 to 146 °C.
With `O=C1CC2(CCCC2)CC(=O)N1CCCCOc1cccc2c1SCCC2` the melting point was 69 °C.
For `O=C(NCCc1ccc(OCc2ccccc2)c(OCc2ccccc2)c1CCc1cccc(OCc2ccccc2)c1)C(F)(F)F`, the melting point was 142 to 144 °C.
Compound `CC#CCOc1cc2ncc(C#N)c(Nc3cc(OC)c(Cl)cc3Cl)c2cc1OC` has a melting point of 193 to 197 °C.
`O=C1Nc2ccccc2N(C(=O)N2CCCC(CCN3CCCCC3)C2)c2ncccc21` (stereo not given) gave a melting point of 168 to 169 °C.
Work on `CCOC(=O)c1c(CCCCn2cncn2)nc2sc3cnccc3c2c1-c1ccc(OC)c(OC)c1` yielded a melting point of 118 to 119 °C.
`CCc1cccc2c1C(=O)C(=S)N2` gave a melting point of 171 to 172 °C.
For `O=C(O)CNC1CCc2ccccc21` (stereo not given), the melting point was 184 to 186 °C.
For `CC(=O)Nc1ccc2c(c1)OCc1cc([N+](=O)[O-])ccc1C2=O`, the melting point was 171 °C.
With `COc1ccc2[nH]c(C(=O)N3CC(CCl)c4c3cc(O)c3ncccc43)cc2c1` (stereo not given) the melting point was 224 to 227 °C.
`O=C(O)Cc1c(C(=O)c2ccc(Cl)cc2)[nH]c2ccc(Cl)cc12` showed a melting point of 220 to 224 °C.
With `CC1(COC(=O)Oc2c(F)c(F)c(F)c(F)c2F)COC(=O)OC1` the melting point was 130 to 131 °C.
In the case of `CCN1C(=O)C(C)(C)C(=O)N(C)c2cc(CN(CCN3C(=O)CCc4ccccc43)Cc3cccnc3C)ccc21`, the melting point is reported as 130 to 131 °C.
For `Cc1csc2nc(S(=O)(=O)Nc3cccc4sccc34)nn12`, the melting point was 205 to 209 °C.
`CC(C)C(O)=C(C#N)C#N` showed a melting point of 92 to 93 °C.
With `NS(=O)(=O)c1ccccc1Cn1cncn1` the melting point was 128 to 131 °C.
`CN1CN(C)c2nc3n(Cc4ccc(F)cc4)c(=O)cc(O)n3c2C1=O` showed a melting point of 214 to 232 °C.
For `CC(C)NCCNc1ccc2ncc(Br)n2n1`, the melting point was 87 to 88 °C.
`CCOC(=O)c1c(C)nc(NCCCN(C)C)c2nccnc12` showed a melting point of 55 to 57 °C.
